According to publication PMC8570541, “Real-time observation of tetrapyrrole binding to an engineered bacterial phytochrome” (Communications Chemistry, 2021):

Assays:
miRFP670 = target: T1, miRFP670 (Rhodopseudomonas palustris, UniProt A0A161I5N6, D200T/I252C, form not given); assay: time-resolved absorption and stimulated Raman spectroscopy, SDS-PAGE; format: binding; details: covalent; Cys253 GAF thioether, then a second thioether to Cys20 PAS; pH 8.0, 20 mM Tris-HCl, 150 mM NaCl, DTT
T1 construct: engineered monomeric PAS-GAF fragment derived from RpBphP1; Cys20 (PAS) and Cys253 (GAF); about 35 kDa; N-terminal polyhistidine tag; apoprotein expressed in E. coli LMG194 without heme oxygenase
T1 sequence (A0A161I5N6 1-314 D200T/I252C limits assumed): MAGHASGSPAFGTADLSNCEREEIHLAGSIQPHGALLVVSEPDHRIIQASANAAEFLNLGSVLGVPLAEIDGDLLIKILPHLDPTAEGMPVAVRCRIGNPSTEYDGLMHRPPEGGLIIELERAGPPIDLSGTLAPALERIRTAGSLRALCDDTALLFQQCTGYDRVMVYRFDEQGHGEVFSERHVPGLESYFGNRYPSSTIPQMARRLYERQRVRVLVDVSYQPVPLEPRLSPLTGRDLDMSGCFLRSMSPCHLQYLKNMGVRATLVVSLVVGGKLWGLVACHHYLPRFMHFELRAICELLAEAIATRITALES

miRFP709 = target: T2, miRFP709 (Rhodopseudomonas palustris, UniProt A0A161I5N6); assay: time-resolved absorption and stimulated Raman spectroscopy; format: binding; details: covalent; thioether to Cys in PAS; pH 8.0, 20 mM Tris-HCl, 150 mM NaCl, DTT
T2 construct: engineered monomeric PAS-GAF fragment derived from RpBphP1; Cys in PAS only, none in GAF; about 35 kDa; N-terminal polyhistidine tag; apoprotein expressed in E. coli LMG194 without heme oxygenase
T2 sequence (A0A161I5N6 1-314 limits assumed): as the sequence (A0A161I5N6 1-314 D200T/I252C limits assumed) above, with T200D, C252I counted along it
Text: time-resolved absorption and stimulated Raman spectroscopy on miRFP709 | We assign the 18-min reaction to the covalent bond formation to Cys in the PAS

C=CC1=C(C)C(=Cc2[nH]c(C=C3N=C(C=C4NC(=O)C(C)=C4C=C)C(C)=C3CCC(=O)O)c(CCC(=O)O)c2C)NC1=O [biliverdin]
time constant of C-S bond formation (Cys in GAF) (miRFP670): 4.3 min | time constant of C-S bond formation (Cys in PAS) (miRFP709): 18 min
